Test results: patent US20090214544A1, “Method of treating cd30 positive lymphomas” (MEDAREX, priority 2005, published 2009)

Key:
[1] = guidance for hydrocortisone equivalents; actual potency may vary slightly; cited from earlier work
[2] = tested on: Hodgkin's Disease (HD), CD30 positive lymphoma; assay: Combination therapy of anti-CD30 antibody and glucocorticosteroid in patients with Hodgkin's Disease; assay type: in vivo, human
Description: The patient, diagnosed with HD, received 5 mg/kg anti-CD30 antibody 5F11 by i.v. infusion once per day per week for 3 weeks. The week after completing antibody therapy (i.e., fourth week from start of therapy), the patient received 40 mg oral dexamethasone once per day for 2 days; one month later the patient received another 40 mg oral dexamethasone once per day for 4 days; two weeks later the patient received a third regimen of 40 mg oral dexamethasone once per day for 4 days.
Patient 2, diagnosed with HD, received 15 mg/kg anti-CD30 antibody 5F11 by i.v. infusion once per day per week for 3 weeks. At the start of week 3 of antibody therapy, the patient received one dose of 50 mg oral dexamethasone. After completion of antibody therapy (i.e., at the beginning of week four following the start of therapy), the patient received one dose of 100 mg oral prednisolone.
Patient 4, diagnosed with HD, received 1 mg/kg anti-CD30 antibody […] by i.v. infusion once per day per week for 3 weeks. On the second day of week 1 after beginning therapy, the patient received 40 mg oral dexamethasone once per day for 4 days, followed by no steroid therapy for 10 days. Thus, a dexamethasone cycle was completed over a 14 day period. For this patient, 8 cycles of dexamethasone therapy were completed over a period of 4 months.

[3] = tested on: T cell lymphoma, CD30 positive lymphoma; assay: Combination therapy of anti-CD30 antibody and glucocorticosteroid in a patient with T cell lymphoma; assay type: in vivo, human; settings: Patient 3, T cell lymphoma; 40 mg oral dexamethasone daily for 4 days, then 50 mg oral prednisolone daily for 20 days; 15 mg/kg 5F11 i.v. once per week for 3 weeks from second week
Description: Patient 3, diagnosed with T cell lymphoma, received 40 mg oral dexamethasone once per day for 4 days. On day 5, dexamethasone treatment ceased and 50 mg oral prednisolone was administered once per day for 20 days. At the beginning of the second week of steroid therapy, antibody therapy was initiated by administering 15 mg/kg anti-CD30 antibody 5F11 by i.v. infusion once per day per week for 3 weeks.

[4] = tested on: ALCL and various HD-derived cell lines; settings: in vitro and in vivo; Borchmann et al., Blood 2003; cited from earlier work

| Molecule | Relative potency in mg to hydrocortisone [1] | further results |
| --- | --- | --- |
| C[C@]12CCC(=O)C=C1CC[C@@H]1[C@@H]2[C@@H](O)C[C@@]2(C)[C@H]1CC[C@]2(O)C(=O)CO [Cortisol] | 1.25 |  |
| C[C@]12CCC(=O)C=C1CC[C@@H]1[C@@H]2C(=O)C[C@@]2(C)[C@H]1CC[C@]2(O)C(=O)CO [Cortisone] | 0.8 |  |
| C[C@]12CCC(=O)C=C1CC[C@@H]1[C@@H]2[C@@H](O)C[C@@]2(C)[C@H]1CC[C@]2(O)C(=O)CO [Hydrocortisone] | 1 |  |
| C[C@]12C=CC(=O)C=C1CC[C@@H]1[C@@H]2[C@@H](O)C[C@@]2(C)[C@H]1CC[C@]2(O)C(=O)CO [Prednisolone] | 4 |  |
| C[C@]12C=CC(=O)C=C1CC[C@H]1[C@@H]3C[C@@H](O)[C@](O)(C(=O)CO)[C@@]3(C)C[C@H](O)[C@@]12F [Triamcinolone] | 5 |  |
| 5F11: fully human anti-CD30 monoclonal antibody; VH SEQ ID NO: 10, VL SEQ ID NO: 12; VH 4-34 and VK L15 (antibody, chains of the INN, looked up, V domains shown, fully human anti-CD30 monoclonal antibody; VH 4-34 and VK L15) VH: QVQLQQWGAGLLKPSETLSLTCAVYGGSFSAYYWSWIRQPPGKGLEWIGDINHGGGTNYNPSLKSRVTISVDTSKNQFSLKLNSVTAADTAVYYCASLTAYWGQGSLVTVSS VL: DIQMTQSPTSLSASVGDRVTITCRASQGISSWLTWYQQKPEKAPKSLIYAASSLQSGVPSRFSGSGSGTDFTLTISSLQPEDFATYYCQQYDSYPITFGQGTRLEIK |  | clinical response ([2]; Patient 1, HD, 5 mg/kg 5F11 i.v. once per week for 3 weeks, then 40 mg oral dexamethasone once per day for 2 days, 4 days and 4 days (three regimens)): partial response; clinical response ([2]; Patient 2, HD, 15 mg/kg 5F11 i.v. once per week for 3 weeks, one dose 50 mg oral dexamethasone at week 3, one dose 100 mg oral prednisolone at week 4): partial response, which improved to complete a response; clinical response ([2]; Patient 4, HD, 1 mg/kg antibody i.v. once per week for 3 weeks, 8 cycles of 40 mg oral dexamethasone daily for 4 days per 14 days over 4 months): partial response; clinical response [3]: complete response; efficacy against ALCL and various HD-derived cell lines [4]: shown efficacy |
